# Assay results: patent publication US12510533B2, “Methods for treating multiple myeloma and the use of companion biomarkers for 4-(4-(4-(((2-(2,6-dioxopiperidin-3-yl)-1-oxoisoindolin-4-yl)oxy)methyl)benzyl)piperazin-1-yl)-3-fluorobenzonitrile” (Celgene Corporation, priority 2018, dated 2025)
# How the values were obtained:
# H929-1051 cells = experiment: PBMC-induced MM cell lysis, PBMCs and MM cells both pretreated, versus single MM culture (H929-1051); type: cell-based, human; details: PBMCs and MM cells both preincubated 72 hours
# Procedure: Ninety-six-well dishes were pre-coated with anti-CD3 antibody (OKT3, 3 μg/mL) and incubated at 4° C. overnight before the start of the experiment. Frozen PBMC donor cells were thawed at 37° C. for 2 minutes in RPMI medium with 10% FBS and cell counts and viability were measured on the Vi-CELL analyzer. Peripheral blood mononuclear cells were washed and diluted to 1×10^6 cells/mL and dispensed into the compound-treated plates in a total volume of 200 μL. Cells were incubated with Compound 2 for 2 hours before being transferred onto anti-CD3-coated plates and incubated for an additional 72 hours. At the same time, MM cell lines (NCI-H929, H929-1051, OPM2, OPM2-P10) were diluted to a final concentration of 0.1×10^6 cells/mL and labeled with CellTrace CFSE according to manufacturer's instructions. Multiple myeloma cell lines were then dispensed into compound-treated plates at a total volume of 200 μL and incubated for 72 hours. After 72 hours, the PBMCs and MM cells were counted and transferred into a U-bottom 96-well plate at a final T:E ratio of 1:5. After 24 hours coculture, specific target cell lysis by PBMC mediated apoptosis was measured using Annexin V-AF647 and 7-AAD according to manufacturer's instructions and samples were run on the Attune NxT Cytometer. […]
# Ikaros and Aiolos = experiment: Immunoblot of Ikaros and Aiolos in H929-1051 cells; type: cell-based, human; details: within 4 hours
# Procedure: FIG. 6A and FIG. 6B illustrate that Compound 2 degraded Ikaros and Aiolos in a concentration dependent manner, which induced apoptosis and cell cycle arrest in pomalidomide-resistant multiple myeloma cells. Shown is immunoblot analysis of pomalidomide-resistant MM cells (H929-1051) incubated with Compound 2 for (FIG. 6A) 4 hours or (FIG. 6B) 72 hours.
# Incubation with concentrations as low as 1 nM of Compound 2 promoted the robust degradation of Ikaros and Aiolos within 4 hours (FIG. 6A).
# Ikaros [1] = target: T1, Ikaros (Homo sapiens, UniProt Q13422+Q96SW2); experiment: Ikaros degradation in CD8+ T cells; type: cell-based; design: The effects of Compound 2 on the degradation of Ikaros in CD4+ and CD8+ T cells; endogenous in cells; host or cells: CD4+ and CD8+ T cells of healthy donors; CD34+ bone marrow cells of healthy donors; CD3+ T cells of multiple myeloma patients; details: 24 hours (data not shown), read-out: Ikaros degradation IC50
# T1 sequence (Q13422 whole entry): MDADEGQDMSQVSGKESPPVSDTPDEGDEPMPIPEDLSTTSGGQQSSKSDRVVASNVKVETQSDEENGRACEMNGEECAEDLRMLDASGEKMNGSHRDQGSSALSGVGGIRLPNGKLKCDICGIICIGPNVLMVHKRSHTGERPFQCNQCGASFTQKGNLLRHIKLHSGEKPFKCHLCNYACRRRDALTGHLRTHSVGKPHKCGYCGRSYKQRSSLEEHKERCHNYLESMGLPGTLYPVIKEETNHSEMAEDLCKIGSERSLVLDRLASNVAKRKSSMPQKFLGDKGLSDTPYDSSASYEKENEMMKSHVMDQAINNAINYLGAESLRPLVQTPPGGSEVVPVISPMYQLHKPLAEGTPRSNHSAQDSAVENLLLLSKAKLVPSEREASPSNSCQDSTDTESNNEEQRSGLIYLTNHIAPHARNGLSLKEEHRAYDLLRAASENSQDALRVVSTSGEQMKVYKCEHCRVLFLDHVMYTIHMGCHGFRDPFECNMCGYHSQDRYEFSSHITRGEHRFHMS
# T1 sequence (Q16531 2-1140, further chain): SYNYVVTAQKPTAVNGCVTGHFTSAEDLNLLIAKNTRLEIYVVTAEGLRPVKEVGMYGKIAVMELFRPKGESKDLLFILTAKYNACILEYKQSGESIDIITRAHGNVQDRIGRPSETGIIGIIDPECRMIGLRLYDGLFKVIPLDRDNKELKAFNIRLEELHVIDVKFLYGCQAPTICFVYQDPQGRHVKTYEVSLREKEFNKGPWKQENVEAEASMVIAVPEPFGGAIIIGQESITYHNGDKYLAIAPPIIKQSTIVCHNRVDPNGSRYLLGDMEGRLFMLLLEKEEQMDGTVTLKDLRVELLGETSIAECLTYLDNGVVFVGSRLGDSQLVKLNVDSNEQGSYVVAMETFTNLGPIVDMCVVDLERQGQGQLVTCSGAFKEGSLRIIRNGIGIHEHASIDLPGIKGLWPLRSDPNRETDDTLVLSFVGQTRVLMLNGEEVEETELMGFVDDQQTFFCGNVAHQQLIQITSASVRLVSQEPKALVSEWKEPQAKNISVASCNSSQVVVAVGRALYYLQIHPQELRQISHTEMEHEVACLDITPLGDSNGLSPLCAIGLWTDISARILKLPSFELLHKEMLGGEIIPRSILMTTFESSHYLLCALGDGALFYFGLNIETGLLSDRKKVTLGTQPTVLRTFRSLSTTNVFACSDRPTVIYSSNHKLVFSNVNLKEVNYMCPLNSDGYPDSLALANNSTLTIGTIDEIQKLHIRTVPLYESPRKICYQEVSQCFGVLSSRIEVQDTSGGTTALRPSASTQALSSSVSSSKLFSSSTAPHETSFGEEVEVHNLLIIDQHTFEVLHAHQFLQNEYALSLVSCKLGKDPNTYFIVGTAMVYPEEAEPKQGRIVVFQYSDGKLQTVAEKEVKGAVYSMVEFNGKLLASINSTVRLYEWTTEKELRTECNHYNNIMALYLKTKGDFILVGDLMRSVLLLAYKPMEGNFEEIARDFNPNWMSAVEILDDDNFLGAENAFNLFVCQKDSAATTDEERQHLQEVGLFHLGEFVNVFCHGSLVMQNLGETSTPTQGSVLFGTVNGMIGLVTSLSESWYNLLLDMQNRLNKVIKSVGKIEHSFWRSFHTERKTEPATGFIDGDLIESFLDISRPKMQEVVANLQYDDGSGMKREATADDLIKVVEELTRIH
# T1 sequence (Q96SW2 whole entry): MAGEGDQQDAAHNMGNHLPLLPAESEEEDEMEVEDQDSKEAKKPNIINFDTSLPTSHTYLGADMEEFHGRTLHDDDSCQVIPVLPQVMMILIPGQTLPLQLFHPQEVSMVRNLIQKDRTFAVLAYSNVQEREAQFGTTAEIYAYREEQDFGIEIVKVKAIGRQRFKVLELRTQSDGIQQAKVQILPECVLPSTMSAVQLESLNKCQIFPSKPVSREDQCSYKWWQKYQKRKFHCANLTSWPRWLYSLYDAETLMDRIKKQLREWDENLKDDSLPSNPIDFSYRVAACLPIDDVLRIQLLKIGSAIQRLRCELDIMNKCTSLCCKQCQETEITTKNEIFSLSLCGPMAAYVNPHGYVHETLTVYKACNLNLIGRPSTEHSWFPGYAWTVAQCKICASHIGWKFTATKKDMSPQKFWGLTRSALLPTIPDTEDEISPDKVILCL
# Procedure: The effects of Compound 2 on the degradation of Ikaros in CD4+ and CD8+ T cells over a 72 hour time course were investigated. The ability of Compound 2 to induce effector cytokine release correlated with degradation of Ikaros in CD4+ T cells, a known transcriptional repressor of IL-2 (FIG. 22A-FIG. 22C). […] The ability of Compound 2 to degrade Ikaros was also observed at the 48 and 72 hour time point in both CD4+(FIG. 22B and FIG. 22C) and CD8+ (data not shown) T cell populations. […] Thus, Ikaros and Aiolos can serve as biomarkers of T-cell activation.
# Ikaros [2] = target: T1, Ikaros; experiment: Ikaros level by flow cytometry in ex vivo cultures of healthy donor bone marrow CD34+ cells (neutrophil maturation); type: cell-based; design: The effects of Compound 2 on the degradation of Ikaros in CD4+ and CD8+ T cells; endogenous in cells; host or cells: CD4+ and CD8+ T cells of healthy donors; CD34+ bone marrow cells of healthy donors; CD3+ T cells of multiple myeloma patients
# Procedure: Ex vivo cultures of bone marrow (BM) CD34^+ cells from healthy donors (HD) were used to investigate the effect of Compound 2 on neutropenia. […] Therefore, we monitored the effects of Compound 2 on mature neutrophils.
# Ikaros protein level was analyzed by flow cytometry after each exposure period, and also at Days 19, 21, and 23 corresponding to 3, 5, and 7 days following the last exposure, respectively. CD34^+ cells derived from healthy donor bone marrow were exposed to different concentrations of Compound 2 and different incubation schedules. The percentage of Ikaros content (normalized to the DMSO control) following Compound 2 exposure at concentrations of 1, 10, and 100 nM for 2, 4, and 6 hours on each of 1, 2, or 3 consecutive days starting on Day 14 were measured. At the end of the exposure period, Compound 2 was removed and cells were incubated in the absence of Compound 2 (recovery period). Ikaros was measured by flow cytometry after incubation with Compound 2 (Days 14 to 16) and during recovery on Days 19, 21, and 23. Ikaros levels were reduced during Compound 2 exposure and recovered following drug withdrawal in a concentration-dependent manner with no significant differences noted in association with different exposure schedules (FIG. 13). Ikaros levels began returning to normal after at least 3 days following washout, pre-dating full recovery of maturation of late-stage neutrophil precursors.
# To further explore the role of Ikaros in relationship to the maturation of neutrophil progenitors, Ikaros protein levels were analyzed by flow cytometry after each exposure and every other day following the last exposure to Compound 2. […] After 3 days of exposure to Compound 2, the recovery of Ikaros began in a concentration-dependent manner just 24 hours after drug washout and returned to control levels after 10 days (FIG. 14; FIG. 16B). With 5 days of exposure to Compound 2, recovery of Ikaros started on Day 17, three days after drug washout (FIG. 15). […]
smiles,measurement,setting,value
"N#Cc1ccc(N2CCN(Cc3ccc(COc4cccc5c4CN([C@H]4CCC(=O)NC4=O)C5=O)cc3)CC2)c(F)c1 [Compound 2, (S)-4-(4-(4-(((2-(2,6-dioxopiperidin-3-yl)-1-oxoisoindolin-4-yl)oxy)methyl)benzyl)piperazin-1-yl)-3-fluorobenzonitrile]","enhancement of killing, IC50 of single MM culture versus immune and tumor cell co-culture",H929-1051 cells,~6000 fold
same,lowest concentration promoting robust degradation of Ikaros and Aiolos,Ikaros and Aiolos,1 nM
same,DC50,Ikaros [1],0.5 nM
same,time following washout at which Ikaros levels began returning to normal,"Ikaros [2]; 2, 4, 6 hour exposures on 1 to 3 consecutive days from Day 14",at least 3 days
same,time for Ikaros to return to control levels,Ikaros [2]; 3 days of 6-hour exposures,10 days
same,Ikaros degradation after one exposure,"Ikaros [2]; all concentrations (1, 10, 100 nM) and all exposure schedules",fully degraded
